“And” between values parts separate entries of the source, which are not always exact repeats. Equal values may be shown once. Read-outs that look alike come from different tables or passages of the source.
Experiments:
[1] = target: Bovine brain microtubule protein (MTP, tubulin and microtubule-associated proteins) (Bos taurus, UniProt Q6B856); assay: Inhibition of microtubule polymerization; type: biochemical; settings: for reduction of microtubule polymer mass: 100 nmol/L compound
[2] = target: MAP-free bovine brain microtubules (Bos taurus, UniProt Q6B856); assay: Microtubule dynamic instability at plus ends; type: biochemical; settings: for Dynamicity, Percent Change (suppression of dynamic instability): 0.1 μmol/L (100 nmol/L) compound vs control; for Dynamicity, Percent Change (suppression of dynamic instability) / Catastrophe Frequency, Percent Change / Growing Lengths, Percent Change / Percent Time Shortening, Percent Change / Rescue Frequency, Percent Change / Shortening Lengths, Percent Change / Shortening Rates, Percent Change / Growing Rates, Percent Change / Percent Time Growing, Percent Change: (−) decrease; for Catastrophe Frequency / Dynamicity / Percent Time Attenuated / Percent Time Growing / Percent Time Shortening / Rescue Frequency / Growing Lengths / Shortening Lengths / Shortening Rates / Growing Rates: 0.1 μmol/L compound; for Percent Time Attenuated (pause), Percent Change / Catastrophe Frequency, Percent Change / Growing Lengths, Percent Change / Percent Time Shortening, Percent Change / Rescue Frequency, Percent Change / Shortening Lengths, Percent Change / Shortening Rates, Percent Change / Growing Rates, Percent Change / Percent Time Growing, Percent Change: 0.1 μmol/L compound vs control; for Percent Time Attenuated (pause), Percent Change / Growing Rates, Percent Change / Percent Time Growing, Percent Change: (+) increase; for Growing Lengths / Shortening Lengths / Shortening Rates / Growing Rates: mean ± SEM; for Growing Rates: plus ends, steady state
MAP-free bovine brain microtubules, sequence (Q6B856 whole entry): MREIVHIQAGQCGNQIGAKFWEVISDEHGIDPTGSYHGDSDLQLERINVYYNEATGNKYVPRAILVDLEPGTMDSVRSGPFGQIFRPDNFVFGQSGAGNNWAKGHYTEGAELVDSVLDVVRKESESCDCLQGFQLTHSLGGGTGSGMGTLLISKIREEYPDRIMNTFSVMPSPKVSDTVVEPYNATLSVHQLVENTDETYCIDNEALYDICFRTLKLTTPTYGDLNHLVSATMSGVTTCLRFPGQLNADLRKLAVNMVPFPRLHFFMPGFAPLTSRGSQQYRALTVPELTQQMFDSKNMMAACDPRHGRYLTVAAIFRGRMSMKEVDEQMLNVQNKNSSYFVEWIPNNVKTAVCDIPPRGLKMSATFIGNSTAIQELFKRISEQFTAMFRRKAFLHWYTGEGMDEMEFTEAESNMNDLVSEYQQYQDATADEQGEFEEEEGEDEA
MAP-free bovine brain microtubules, sequence (P81947 whole entry partner): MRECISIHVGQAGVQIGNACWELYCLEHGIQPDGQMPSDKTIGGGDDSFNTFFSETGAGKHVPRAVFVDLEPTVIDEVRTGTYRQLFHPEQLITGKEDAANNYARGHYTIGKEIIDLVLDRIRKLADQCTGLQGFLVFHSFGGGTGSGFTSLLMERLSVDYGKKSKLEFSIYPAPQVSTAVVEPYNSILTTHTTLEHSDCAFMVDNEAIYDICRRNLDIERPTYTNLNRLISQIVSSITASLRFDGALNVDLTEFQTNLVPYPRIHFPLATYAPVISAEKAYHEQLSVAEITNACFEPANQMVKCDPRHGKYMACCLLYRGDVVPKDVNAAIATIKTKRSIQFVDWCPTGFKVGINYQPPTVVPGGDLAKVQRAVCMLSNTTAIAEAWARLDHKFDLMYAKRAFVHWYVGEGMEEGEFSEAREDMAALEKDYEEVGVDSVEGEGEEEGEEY

[3] = system: Bovine brain microtubule protein (MTP); assay: Electron microscopy of polymers formed; type: biochemical
[4] = target: soluble bovine brain tubulin (Bos taurus, UniProt Q6B856); assay: Binding to soluble tubulin
soluble bovine brain tubulin, sequence (P81947 whole entry): as the sequence (P81947 whole entry partner) above
soluble bovine brain tubulin, sequence (Q6B856 whole entry): as the sequence (Q6B856 whole entry) above

[5] = target: steady-state microtubules (MAP-rich); assay: Binding of [3H]S-methyl DM1 to steady-state microtubules; design: species or system bovine
[6] = system: microtubules; settings: cited from earlier work
[7] = system: microtubules; settings: cited from earlier work; remark: listed apart in the source
[8] = system: metastatic breast cancer; settings: Phase II, patients with metastatic breast cancer; cited from earlier work
[9] = target: rat brain tubulin; settings: read-out: KD for tubulin reported previously; cited from earlier work
[10] = 20 μmol/L compound (maytansine: 4 μmol/L and 20 μmol/L)

Bovine brain microtubule protein (MTP, tubulin and microtubule-associated proteins), sequence (P81947 whole entry): as the sequence (P81947 whole entry partner) above
Bovine brain microtubule protein (MTP, tubulin and microtubule-associated proteins), sequence (Q6B856 whole entry): as the sequence (Q6B856 whole entry) above

Compound	Dynamicity, Percent Change (suppression of dynamic instability) [2]	Catastrophe Frequency [2]	Dynamicity [2]	Percent Time Attenuated [2]	Percent Time Growing [2]	Percent Time Shortening [2]	Rescue Frequency [2]	Percent Time Attenuated (pause), Percent Change [2]	Catastrophe Frequency, Percent Change [2]	Growing Lengths, Percent Change [2]	Percent Time Shortening, Percent Change [2]	Rescue Frequency, Percent Change [2]	Shortening Lengths, Percent Change [2]	Shortening Rates, Percent Change [2]	Growing Rates, Percent Change [2]	Percent Time Growing, Percent Change [2]	Growing Lengths [2]	Shortening Lengths [2]	Shortening Rates [2]	Growing Rates [2]	other results
COc1cc2cc(c1Cl)N(C)C(=O)C[C@H](OC(=O)[C@H](C)N(C)C(=O)CCC(C)(C)SC)[C@]1(C)O[C@H]1[C@H](C)[C@@H]1C[C@@](O)(NC(=O)O1)[C@H](OC)/C=C/C=C(\C)C2 [S-methyl DM4, N^2'-deacetyl-N^2'-(4-thiomethyl-4-methyl-1-oxopentyl)-maytansine]	73% and 73 (−) %	0.03 per min	0.35	80.6%	15.2%	4.2%	0.50 per min	30% and 30 (+) %	90% and 90 (−) %	16 (−) %	72 (−) %	50 (−) %	60% and 60 (−) %	56% and 56 (−) %	24 (−) %	34 (−) %	1.6 ± 0.1 μm/event	1.2 ± 0.2 μm/event	3.9 ± 0.4 μm/min	1.3 ± 0.3 μm/min	reduction of microtubule polymer mass [1]: less than 3%; plateau inhibition of polymerization ([1]; between 10 μmol/L and 20 μmol/L): 75%; plateau of sedimentable polymer, % of the control polymer mass ([1]; between 10 and 20 μmol/L): 25%; concentrations inducing tubulin aggregates detectable by electron microscopy [3]: ≥ 2 µmol/L; polymer morphology by electron microscopy ([3]; 2 μmol/L compound): aggregates as well as both normal and also some imperfect, ragged microtubules with loose protofilamentous structure; polymer morphology by electron microscopy [3, 10]: more extensive aggregation of tubulin occurred with no intact microtubules
COc1cc2cc(c1Cl)N(C)C(=O)C[C@H](OC(=O)[C@H](C)N(C)C(=O)CCSC)[C@]1(C)O[C@H]1[C@H](C)[C@@H]1C[C@@](O)(NC(=O)O1)[C@H](OC)/C=C/C=C(\C)C2 [S-methyl DM1, N^2'-deacetyl-N^2'-(3-thiomethyl-1-oxopropyl)-maytansine]	84% and 84 (−) %	0.03 per min	0.21	87.4%	7.3%	5.4%	0.56 per min	41% and 41 (+) %	90% and 90 (−) %	47 (−) %	64 (−) %	44 (−) %	60% and 60 (−) %	70% and 70 (−) %	24 (−) %	70 (−) %	1 ± 0.1 μm/event	1.2 ± 0.2 μm/event	2.7 ± 0.9 μm/min	1.3 ± 0.4 μm/min	reduction of microtubule polymer mass [1]: less than 3%; concentration showing nearly complete inhibition of microtubule polymerization ([1]; MTP 3 mg/mL, 30°C): 20 µmol/L; suppression of dynamicity (change) ([2]; 20 nmol/L, data not shown): ~ 6%; Kd ([4]; read-out: equilibrium dissociation constant (KD) for soluble tubulin, 3 μmol/L tubulin, PEM buffer, 45 min, 30°C): 930 nM and 900 nM; KD of low affinity sites, fold higher than high affinity sites [5]: 20 fold; binding to high affinity sites on microtubules, fold more strongly than vinblastine [5]: 20 fold and 19 fold; number of low affinity sites [5]: several hundred; molecules bound per microtubule ([5]; 0.1 μmol/L (100 nmol/L)): 19 ± 1 and 19; mean length of the microtubules ([5]; 500 nmol/L – 4 μmol/L, standard deviation 4.5 μm): 13.9–14.1 μm; molecules bound per microtubule or sedimentable aggregate ([5]; 1 μmol/L): approximately 105; molecules bound per microtubule or sedimentable aggregate ([5]; 4 μmol/L): 210 ± 37 and ~210; number of high affinity sites per microtubule ([5]; Scatchard X-intercept): 37; mean length of the microtubules ([5]; between 0 and 100 nmol/L, maximum standard deviation 4 μm): 14.4–14.5 μm; molecules bound to sedimentable polymer, per microtubule ([5]; concentrations ≥500 nmol/L): 60–210; decrease of microtubule polymer mass ([5]; pre-assembled MAP-rich microtubules, 1 h, any concentration (0 – 4 μM)): less than 4%; Kd ([5]; read-out: KD, high affinity sites on microtubules, low drug concentrations (10 nmol/L – 100 nmol/L)): 100 ± 50 nM; Kd ([5]; read-out: KD, low affinity sites on microtubules and sedimentable aggregates, higher drug concentrations (0.1 μmol/L to 4 μmol/L)): 2200 ± 200 nM; concentrations inducing tubulin aggregates detectable by electron microscopy [3]: ≥ 2 µmol/L; polymer morphology by electron microscopy ([3]; 2 μmol/L compound): a small number of small aggregates along with the microtubules; polymer morphology by electron microscopy [3, 10]: an increase in aggregate formation
CC[C@]1(O)C[C@@H]2CN(CCc3c([nH]c4ccccc34)[C@@](C(=O)OC)(c3cc4c(cc3OC)N(C)[C@H]3[C@@](O)(C(=O)OC)[C@H](OC(C)=O)[C@]5(CC)C=CCN6CC[C@]43[C@@H]65)C2)C1 [vinblastine]																					high affinity binding sites per microtubule [6]: 16.8 ± 4.3; suppression of catastrophe frequency ([7]; 100 nmol/L): ~ 30%; suppression of growth rate ([7]; 100 nmol/L): 34%; suppression of shortening rate ([7]; 100 nmol/L): 47%; enhancement of rescue frequency [7]: ~ 200%
trastuzumab-DM1																					interim overall response rate [8]: 39%
COc1cc2cc(c1Cl)N(C)C(=O)C[C@H](OC(=O)[C@H](C)N(C)C(C)=O)[C@]1(C)O[C@H]1[C@H](C)[C@@H]1C[C@@](O)(NC(=O)O1)[C@H](OC)/C=C/C=C(\C)C2 [Maytansine, reference compound]	45 (−) %	0.21 per min	0.72	65%	24%	11%	0.60 per min	5 (+) %	30 (−) %	37 (−) %	26 (−) %	40% and 40 (−) %	40 (−) %	35% and 35 (−) %	35% and 35 (−) %	3.4 (+) %	1.2 ± 0.1 μm/event	1.8 ± 0.9 μm/event	5.8 ± 0.5 μm/min	1.1 ± 0.2 μm/min	inhibition at 0.1 µM ([1]; read-out: reduction of microtubule polymer mass): 20%; Dynamicity, Percent Change (suppression of dynamic instability) ([2]; listed as maytansine): 45%; Percent Time Attenuated (pause), Percent Change ([2]; listed as maytansine): negligible effect; Catastrophe Frequency, Percent Change ([2]; listed as maytansine): 30%; Shortening Lengths, Percent Change ([2]; listed as maytansine): 40%; Kd [4]: 860 ± 200 nM; polymer morphology by electron microscopy ([3]; 2 μmol/L compound): very few microtubules and no aggregates; polymer morphology by electron microscopy [3, 10]: no microtubules or aggregates; Kd [9]: 700 nM
C=C1C[C@@H]2CC[C@@]34C[C@H]5O[C@H]6[C@@H](O3)[C@H]3O[C@H](CC[C@@H]3O[C@H]6[C@H]5O4)CC(=O)C[C@@H]3[C@@H](OC)[C@@H](C[C@H](O)CN)O[C@H]3C[C@H]3O[C@@H](CC[C@@H]1O2)C[C@@H](C)C3=C [eribulin]																					high affinity binding sites per microtubule [6]: 14.7 ±1.3
